Measured values from patent publication US20180280377A1, “Imidazo[4,5-c]quinolin-2-one Compounds and Their Use in Treating Cancer” (ASTRAZENECA AB, priority 2015, published 2018).

Columns and labels:
ATM = biological target: T1, ATM (Homo sapiens, UniProt Q13315); assay: ATM cellular potency assay (pATM Ser1981 in irradiated HT29 cells); format: cell-based; conditions: 1 h compound, X-ray irradiation, pATM (Ser1981); Table 2; read-out: Assay a) ATM Cell IC50
T1 construct: endogenous in cells; host or cells: HT29 cells (ECACC #85061109)

PI3Kα = PI3Kα (Homo sapiens, UniProt P42336); assay: PI3K cellular potency assay (phospho-Akt T308 in BT474 cells, ELISA); format: cell-based; conditions: 2 h, phospho-Akt (T308); Table 2; read-out: Assay c) PI3Kα Cell IC50
Procedure: The following assays were used to measure the effects of the compounds of the present invention: a) ATM cellular potency assay; b) PI3K cellular potency assay; c) mTOR cellular potency assay; d) ATR cellular potency assay. During the description of the assays, generally: • i. […] IC50 values were calculated using a smart fitting model in Genedata.
This assay was used to measure PI3K-α inhibition in cells. PDK1 was identified as the upstream activation loop kinase of protein kinase B (Akt1), which is essential for the activation of PKB. Activation of the lipid kinase phosphoinositide 3 kinase (PI3K) is critical for the activation of PKB by PDK1.
Following ligand stimulation of receptor tyrosine kinases, PI3K is activated, which converts PIP2 to PIP3, which is bound by the PH domain of PDK1 resulting in recruitment of PDK1 to the plasma membrane where it phosphorylates AKT at Thr308 in the activation loop.
The aim of this cell-based mode of action assay is to identify compounds that inhibit PDK activity or recruitment of PDK1 to membrane by inhibiting PI3K activity. Phosphorylation of phospho-Akt (T308) in BT474c cells following treatment with compounds for 2 h is a direct measure of PDK1 and indirect measure of PI3K activity.
The following morning compounds in 100% DMSO were added to assay plates by acoustic dispensing.
Plates were incubated over night at 4° C. The next day the plates were washed with PBS buffer containing 0.05% Tween 20 and further incubated with a mouse monoclonal anti-phospho AKT T308 for 2 h. Plates were washed again as above before addition of a horse anti-mouse-HRP conjugated secondary antibody. […] The developed fluorescent product was stopped after 60 minutes by addition of Stop solution to the wells.

T1 sequence (Q13315 whole entry): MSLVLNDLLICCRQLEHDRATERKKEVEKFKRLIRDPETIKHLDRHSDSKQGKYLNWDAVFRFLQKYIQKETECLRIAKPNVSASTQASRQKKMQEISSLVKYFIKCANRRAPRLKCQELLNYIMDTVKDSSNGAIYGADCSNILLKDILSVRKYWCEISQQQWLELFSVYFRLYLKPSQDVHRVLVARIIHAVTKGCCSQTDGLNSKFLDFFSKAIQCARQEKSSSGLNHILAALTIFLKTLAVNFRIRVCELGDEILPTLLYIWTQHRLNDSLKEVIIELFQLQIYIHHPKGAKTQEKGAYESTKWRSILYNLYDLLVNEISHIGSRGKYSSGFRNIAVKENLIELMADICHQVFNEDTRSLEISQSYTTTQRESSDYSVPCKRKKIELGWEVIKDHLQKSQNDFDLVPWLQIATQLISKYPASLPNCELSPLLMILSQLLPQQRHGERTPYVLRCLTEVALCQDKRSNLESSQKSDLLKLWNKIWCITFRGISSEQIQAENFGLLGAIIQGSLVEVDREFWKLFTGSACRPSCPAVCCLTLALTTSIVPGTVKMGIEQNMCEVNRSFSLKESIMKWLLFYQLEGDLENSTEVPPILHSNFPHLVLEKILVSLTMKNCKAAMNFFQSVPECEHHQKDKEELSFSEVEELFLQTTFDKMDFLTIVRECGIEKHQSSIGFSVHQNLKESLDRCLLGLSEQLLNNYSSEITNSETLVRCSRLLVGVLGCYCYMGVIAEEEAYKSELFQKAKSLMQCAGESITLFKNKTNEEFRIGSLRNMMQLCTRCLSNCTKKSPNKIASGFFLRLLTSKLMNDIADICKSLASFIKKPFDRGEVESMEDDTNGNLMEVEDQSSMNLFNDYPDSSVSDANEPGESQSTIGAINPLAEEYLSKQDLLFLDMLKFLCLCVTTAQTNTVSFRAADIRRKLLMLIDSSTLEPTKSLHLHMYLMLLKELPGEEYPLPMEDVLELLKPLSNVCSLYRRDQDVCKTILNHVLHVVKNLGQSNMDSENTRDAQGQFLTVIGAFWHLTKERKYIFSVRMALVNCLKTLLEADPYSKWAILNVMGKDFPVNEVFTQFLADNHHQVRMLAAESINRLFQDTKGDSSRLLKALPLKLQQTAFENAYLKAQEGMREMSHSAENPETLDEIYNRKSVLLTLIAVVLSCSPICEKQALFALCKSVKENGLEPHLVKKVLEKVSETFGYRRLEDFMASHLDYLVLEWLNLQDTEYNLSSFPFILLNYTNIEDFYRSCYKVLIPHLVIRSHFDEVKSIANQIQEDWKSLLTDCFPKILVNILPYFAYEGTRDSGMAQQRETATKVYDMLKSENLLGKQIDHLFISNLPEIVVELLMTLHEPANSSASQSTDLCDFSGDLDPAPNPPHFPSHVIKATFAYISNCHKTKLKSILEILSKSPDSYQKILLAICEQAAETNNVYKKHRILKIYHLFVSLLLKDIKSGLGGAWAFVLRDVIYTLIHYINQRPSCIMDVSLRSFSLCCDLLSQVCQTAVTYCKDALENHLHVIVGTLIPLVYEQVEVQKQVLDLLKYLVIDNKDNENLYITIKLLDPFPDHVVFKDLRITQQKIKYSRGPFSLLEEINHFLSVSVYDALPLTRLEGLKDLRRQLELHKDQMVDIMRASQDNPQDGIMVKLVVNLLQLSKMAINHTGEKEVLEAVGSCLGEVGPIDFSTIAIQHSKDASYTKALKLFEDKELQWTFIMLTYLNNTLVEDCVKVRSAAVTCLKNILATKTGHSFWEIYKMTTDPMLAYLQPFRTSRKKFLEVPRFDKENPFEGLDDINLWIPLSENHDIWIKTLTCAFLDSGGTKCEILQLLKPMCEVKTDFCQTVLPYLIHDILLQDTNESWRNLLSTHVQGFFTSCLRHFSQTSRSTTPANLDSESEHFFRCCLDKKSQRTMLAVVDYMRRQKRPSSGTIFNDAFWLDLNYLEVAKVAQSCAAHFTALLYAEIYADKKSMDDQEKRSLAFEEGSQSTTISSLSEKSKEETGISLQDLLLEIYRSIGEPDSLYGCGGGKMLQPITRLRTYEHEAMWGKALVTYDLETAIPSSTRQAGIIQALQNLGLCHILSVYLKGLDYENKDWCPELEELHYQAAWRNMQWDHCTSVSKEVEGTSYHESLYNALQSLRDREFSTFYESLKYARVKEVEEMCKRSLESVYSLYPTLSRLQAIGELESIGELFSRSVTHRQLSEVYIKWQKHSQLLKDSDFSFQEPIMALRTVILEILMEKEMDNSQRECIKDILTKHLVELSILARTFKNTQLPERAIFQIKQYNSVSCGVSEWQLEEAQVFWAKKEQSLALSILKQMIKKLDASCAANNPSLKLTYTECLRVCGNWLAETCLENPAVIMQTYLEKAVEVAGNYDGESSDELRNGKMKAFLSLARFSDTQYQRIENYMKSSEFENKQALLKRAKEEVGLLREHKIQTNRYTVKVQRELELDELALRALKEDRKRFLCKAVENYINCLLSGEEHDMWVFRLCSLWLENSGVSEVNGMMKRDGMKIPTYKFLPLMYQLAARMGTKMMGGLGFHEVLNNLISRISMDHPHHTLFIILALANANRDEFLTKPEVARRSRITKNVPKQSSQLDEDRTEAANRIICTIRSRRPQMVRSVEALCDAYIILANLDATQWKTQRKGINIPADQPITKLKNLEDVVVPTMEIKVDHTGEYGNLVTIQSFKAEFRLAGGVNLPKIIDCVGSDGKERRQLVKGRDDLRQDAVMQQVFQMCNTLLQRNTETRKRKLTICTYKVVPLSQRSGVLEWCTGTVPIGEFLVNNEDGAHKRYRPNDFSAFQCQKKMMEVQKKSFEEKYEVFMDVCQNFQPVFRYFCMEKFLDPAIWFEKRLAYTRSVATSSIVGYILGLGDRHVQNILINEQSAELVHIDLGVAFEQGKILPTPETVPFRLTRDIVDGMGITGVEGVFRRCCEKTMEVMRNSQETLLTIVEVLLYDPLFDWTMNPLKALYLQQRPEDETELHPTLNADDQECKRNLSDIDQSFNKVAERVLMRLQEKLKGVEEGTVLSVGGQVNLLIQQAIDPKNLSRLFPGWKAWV
PI3Kα, sequence (P42336 whole entry): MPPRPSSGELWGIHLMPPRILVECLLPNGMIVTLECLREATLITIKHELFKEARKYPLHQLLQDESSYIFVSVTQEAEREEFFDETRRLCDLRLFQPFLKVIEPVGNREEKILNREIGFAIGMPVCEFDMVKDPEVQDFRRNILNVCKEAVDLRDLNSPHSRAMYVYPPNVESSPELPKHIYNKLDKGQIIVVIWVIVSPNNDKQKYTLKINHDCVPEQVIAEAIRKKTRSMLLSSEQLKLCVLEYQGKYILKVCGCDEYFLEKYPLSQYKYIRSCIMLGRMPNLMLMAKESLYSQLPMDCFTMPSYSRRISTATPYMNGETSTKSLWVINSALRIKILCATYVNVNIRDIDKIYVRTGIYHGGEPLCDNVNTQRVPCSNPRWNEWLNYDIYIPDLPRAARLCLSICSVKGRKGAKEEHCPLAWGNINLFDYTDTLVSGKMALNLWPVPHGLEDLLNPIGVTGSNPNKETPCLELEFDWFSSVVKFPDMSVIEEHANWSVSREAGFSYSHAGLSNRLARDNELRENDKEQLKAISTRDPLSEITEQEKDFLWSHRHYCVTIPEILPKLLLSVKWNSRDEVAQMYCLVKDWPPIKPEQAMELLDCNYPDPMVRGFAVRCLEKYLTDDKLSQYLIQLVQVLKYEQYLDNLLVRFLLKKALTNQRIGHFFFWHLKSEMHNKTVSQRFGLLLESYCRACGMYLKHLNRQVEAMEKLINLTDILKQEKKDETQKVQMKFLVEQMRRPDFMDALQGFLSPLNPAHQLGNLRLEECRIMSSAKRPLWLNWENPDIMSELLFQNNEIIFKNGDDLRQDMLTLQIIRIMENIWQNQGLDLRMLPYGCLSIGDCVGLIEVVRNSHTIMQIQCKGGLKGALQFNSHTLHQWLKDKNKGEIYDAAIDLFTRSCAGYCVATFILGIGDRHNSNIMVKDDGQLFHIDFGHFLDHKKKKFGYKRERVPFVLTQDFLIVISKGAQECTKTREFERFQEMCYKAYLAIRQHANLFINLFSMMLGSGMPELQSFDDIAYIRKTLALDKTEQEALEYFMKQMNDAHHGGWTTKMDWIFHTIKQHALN
PI3Kα, sequence (P27986 2-724, further chain): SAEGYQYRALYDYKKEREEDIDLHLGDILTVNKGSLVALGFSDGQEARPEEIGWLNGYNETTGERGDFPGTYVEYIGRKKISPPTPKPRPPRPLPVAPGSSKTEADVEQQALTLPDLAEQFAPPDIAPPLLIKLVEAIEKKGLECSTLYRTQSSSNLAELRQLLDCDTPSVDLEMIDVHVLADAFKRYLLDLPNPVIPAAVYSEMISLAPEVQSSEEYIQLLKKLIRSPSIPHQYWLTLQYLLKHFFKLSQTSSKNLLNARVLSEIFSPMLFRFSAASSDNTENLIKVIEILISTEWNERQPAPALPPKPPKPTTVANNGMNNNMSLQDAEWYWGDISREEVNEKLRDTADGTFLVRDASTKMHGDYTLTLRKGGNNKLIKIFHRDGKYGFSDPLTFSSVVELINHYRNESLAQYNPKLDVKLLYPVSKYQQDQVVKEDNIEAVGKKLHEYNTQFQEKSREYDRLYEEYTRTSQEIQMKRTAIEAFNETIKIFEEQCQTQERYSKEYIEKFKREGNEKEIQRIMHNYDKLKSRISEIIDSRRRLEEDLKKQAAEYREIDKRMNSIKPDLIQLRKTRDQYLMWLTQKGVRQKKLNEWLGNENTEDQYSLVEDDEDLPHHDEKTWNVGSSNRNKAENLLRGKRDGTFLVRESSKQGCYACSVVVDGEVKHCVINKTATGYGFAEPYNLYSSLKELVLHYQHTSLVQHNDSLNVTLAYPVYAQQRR

| IC50 (ATM) [nM] | IC50 (PI3Kα) [nM] | SMILES |
| --- | --- | --- |
| 0.307 | 663 | CO[C@H]1CC[C@H](n2c(=O)n(C)c3cnc4ccc(-c5ccc(N6CCC(N(C)C)CC6)nc5)cc4c32)C1 (single isomer, unassigned) [Example 32, 8-[6-[4-(dimethylamino)-1-piperidyl]-3-pyridyl]-1-[trans-3-methoxycyclopentyl]-3-methyl-imidazo[4,5-c]quinolin-2-one] |
| 0.357 | 987 | CO[C@H]1C[C@@H](n2c(=O)n(C)c3cnc4ccc(-c5ccc(N6CCC(N(C)C)CC6)nc5)cc4c32)C1 [Example 36, 8-[6-[4-(dimethylamino)-1-piperidyl]-3-pyridyl]-1-(cis-3-methoxycyclobutyl)-3-methyl-imidazo[4,5-c]quinolin-2-one] |
| 0.502 | 292 | CNC1CCN(c2ccc(-c3ccc4ncc5c(c4c3)n([C@H]3C[C@@H](OC)C3)c(=O)n5C)cn2)CC1 [Example 60, 1-(cis-3-methoxycyclobutyl)-3-methyl-8-[6-[4-(methylamino)-1-piperidyl]-3-pyridyl]imidazo[4,5-c]quinolin-2-one] |
| 1.54 | > 30000 | CO[C@H]1C[C@@H](n2c(=O)n(C)c3cnc4cc(F)c(-c5ccc(N6CCC(N(C)C)CC6)nc5)cc4c32)C1 [Example 42, 8-[6-[4-(dimethylamino)-1-piperidyl]-3-pyridyl]-7-fluoro-1-(cis-3-methoxycyclobutyl)-3-methyl-imidazo[4,5-c]quinolin-2-one] |
| 1.16 | > 30000 | CNC1CCN(c2ccc(-c3cc4c(cc3F)ncc3c4n([C@H]4C[C@@H](OC)C4)c(=O)n3C)cn2)CC1 [Example 57, 7-Fluoro-1-(cis-3-methoxycyclobutyl)-3-methyl-8-[6-[4-(methylamino)-1-piperidyl]-3-pyridyl]imidazo[4,5-c]quinolin-2-one] |

Continued, compound first:

| SMILES | IC50 (ATM) [nM] | IC50 (PI3Kα) [nM] |
| --- | --- | --- |
| CN(C)[C@@H]1CCN(c2ccc(-c3ccc4ncc5c(c4c3)n([C@@H]3CCCOC3)c(=O)n5C)cn2)C1 [Example 7] | 0.626 | 1220 |
| CN(C)[C@H]1CCN(c2ccc(-c3cc4c(cc3F)ncc3c4n([C@H]4CCCOC4)c(=O)n3C)cn2)C1 [Example 20] | 36.5 | > 10000 |
| CO[C@H]1C[C@@H](n2c(=O)n(C)c3cnc4cc(F)c(-c5ccc(N6CC(N(C)C)C6)nc5)cc4c32)C1 [Example 31, 8-[6-[3-(dimethylamino)azetidin-1-yl]-3-pyridyl]-7-fluoro-1-(cis-3-methoxycyclobutyl)-3-methyl-imidazo[4,5-c]quinolin-2-one] | 33.8 | > 30000 |
